Test results published in patent publication US20050282788A1, “Pharmaceutical compositions comprising silicones and two solubilized active principles” (GALDERMA S.A., priority 2004, published 2005).

Assays:
[1] = Stability of calcitriol in ethanol (HPLC assay against a reference); format: physicochemical; conditions: 30 ppm calcitriol in absolute ethanol, 0.02% BHT
Description: (§1) The stability of calcitriol was tested in various solvents, including ethanol 100 and a 75%/25% ethanol 100/cyclomethicone mixture. a) Stability of Calcitriol in Ethanol: A 30 ppm solution of calcitriol in absolute ethanol to 100% is prepared in the presence of 0.02% of butylated hydroxytoluene (BHT). At the starting time (T0) the calcitriol concentration is taken to be 100%.

[2] = Stability of calcitriol in the (ethanol/cyclopentasiloxane) mixture (HPLC assay against a reference); format: physicochemical; conditions: 30 ppm calcitriol, 0.02% BHT
Description: as §1, with “b)” for “a)”, “the (Ethanol/Cyclopentasiloxane) Mixture” for “Ethanol:”, “BHT.” for “butylated hydroxytoluene (BHT).”, “(TO)” for “(T0)”

Compound: C=C1/C(=C\C=C2/CCC[C@]3(C)[C@@H]([C@H](C)CCCC(C)(C)O)CC[C@@H]23)C[C@@H](O)C[C@@H]1O [calcitriol]
- calcitriol concentration (T0 taken to be 100%) ([1]; +4° C., T1 week): 97.7%
- calcitriol concentration (T0 taken to be 100%) ([1]; +4° C., T2 weeks): 98.6%
- calcitriol concentration (T0 taken to be 100%) ([1]; +4° C., T3 weeks): 98.1%
- calcitriol concentration (T0 taken to be 100%) ([1]; +4° C., T4 weeks): 97.7%
- calcitriol concentration (T0 taken to be 100%) ([1]; +30° C., T2 weeks): 93.4%
- calcitriol concentration (T0 taken to be 100%) ([1]; +30° C., T4 weeks): 93.0%
- calcitriol concentration (T0 taken to be 100%) ([1]; −18° C., T1 week): 100.9%
- calcitriol concentration (T0 taken to be 100%) ([1]; −18° C., T2 weeks): 100.5%
- calcitriol concentration (T0 taken to be 100%) ([1]; −18° C., T3 weeks): 99.5%
- calcitriol concentration (T0 taken to be 100%) ([1]; −18° C., T4 weeks): 99.5%
- calcitriol concentration (T0 taken to be 100%) ([2]; +4° C., T2 weeks): 99.2%
- calcitriol concentration (T0 taken to be 100%) ([2]; +4° C., T3 weeks): 99.6%
- calcitriol concentration (T0 taken to be 100%) ([2]; +4° C., T4 weeks): 97.5%
- calcitriol concentration (T0 taken to be 100%) ([2]; +30° C., T2 weeks): 93.8%
- calcitriol concentration (T0 taken to be 100%) ([2]; +30° C., T4 weeks): 93.3%
- calcitriol concentration (T0 taken to be 100%) ([2]; −18° C., T2 weeks): 100.4%
- calcitriol concentration (T0 taken to be 100%) ([2]; −18° C., T3 weeks): 101.3%
- calcitriol concentration (T0 taken to be 100%) ([2]; −18° C., T4 weeks): 99.2%
